Patent publication US10463764B2, “3D tissue-engineered bone marrow for personalized therapy and drug development” (Washington University, priority 2014, dated 2019)

Key:
MM1s cells [1] = experiment: Drug survival of MM1s cells in mono- or multi-culture in classic 2D cultures and 3DTEBM, by flow cytometry; assay type: cell-based; settings: Homo sapiens, MM1.S, 24 h
Description: MM1s-GFP cells (30×10^3 cells/well) were cultured in mono-culture or multi-culture conditions [CD138^− stromal cells-DiD (10×10^3 cells/well), HUVECs-DiD (10×10^3 cells/well), and fibronectin 100 ng/ml)] in 3DTEBM and classic 2D cultures. After 2 h gelification of 3DTEBM or adhesion in 2D cultures (cells were culture in 50 μl), 50 ul of RPMI completed media was added on top of 3DTEBM. Then, 50 μl of bortezomib (0-30 nM), carfilzomib (0, 10 nM), or melphalan (0, 1 μM) solutions were added on top of 2D cultures and 3DTEBM for 24 h. Cell proliferation assay was assessed by flow cytometry as previously described. Briefly, drug-media was removed, 3DTEBM were digested and cells of 2D cultures detached by pipetting. Effect of drug treatment in MM1s-GFP cells was measured and normalized to non-treated conditions.
Finally, the effect of increasing concentrations of bortezomib on the survival of MM1s cells grown in mono-culture or multi-culture in 3DTEBM and 2D cultures was measured.

MM1s cells [2] = experiment: Effect of ECM component fibronectin on growth of MM cells inside 3DTEBM, by flow cytometry; assay type: cell-based; settings: 100 ng/ml, day 3
Description: For flow cytometry analysis, an internal control (MM1s-calcein violet) was added and a minimum of 5,000 events were acquired using BD FACS Aria (BD Biosciences) and DiVa v6.1.2 software. The data was analyzed using FlowJo program v10 (Ashland, Oreg.). MM cells or CD138^+ cells were identified by gating cells with a high GFP/DiO signal (excitement, 488 nm; filter, 530/30 nm); Hs5 stroma or CD138-stromal cells were identified by gating cells with a high DiD signal (excitement, 638 nm; filter, 660/20 nm); HUVECs were identified by gating cells with a high DiI signal (excitement, 488 nm; filter, 585/15 nm); and MM1s cells control were identified by gating cells with a high UV signal (excitement, 355 nm; filter, 450/50 nm). A 3DTEBM was digested with type I collagenase at 25 mg/ml for 2 h at 37° C. Classic bi-dimensional (2D) cultures were washed with PBS and removed by pipetting. The effect of cell density (5×10^3-50×10^3 cells/well) of MM1s-GFP, Hs5 stroma-DiD, CD138− stromal cells-DiD, and HUVECs-DiI on growth rate in mono-cultures at day 3 inside 3DTEBM was measured by flow cytometry. […]

| Compound | IC50 (MM1s cells [1]; 3DTEBM mono-culture) [nM] | IC50 (MM1s cells [1]; 3DTEBM multi-culture (CD138- stromal cells, HUVECs, fibronectin)) [nM] | IC50 (MM1s cells [1]; classic 2D mono-culture) [nM] | IC50 (MM1s cells [1]; classic 2D multi-culture (CD138- stromal cells, HUVECs, fibronectin)) [nM] | increase of growth of MM cells in 3DTEBM (MM1s cells [2]) |
| --- | --- | --- | --- | --- | --- |
| CC(C)C[C@H](NC(=O)[C@H](Cc1ccccc1)NC(=O)c1cnccn1)B(O)O [bortezomib] | 15 to 20 | ~25 | ~5 | ~7 |  |
| fibronectin |  |  |  |  | about 25% |
